*1 amine or outer side, *2 acyl side, *3 side chain or, on linkers, in order; H or OH if unused. Where a SMILES comes first, the peptide text is derived from it. Bridges are numbered along the chain shown (N, C = ends). [ ]: non-standard residue; d: D form. Leu(3R-O(AcLeu(3R-OH))) = CC(=O)N[C@H](C(=O)O[C@H](C(C)C)[C@H](N)C(=O)O)[C@H](O)C(C)C; X1 = CC(C)[C@@H](O[*:3])[C@H](N[*:1])C(=O)[*:2]; NMeT = CN[C@H](C(=O)O)[C@@H](C)O; dPhLac = O=C(O)[C@H](O)Cc1ccccc1; NMeA = CN[C@@H](C)C(=O)O; NMeDha = C=C(NC)C(=O)O Where only a bound is given, the exact number is not on record here.

This assay is described as follows: Inhibition of recombinant rat Gi coupled mGlu2 receptor expressed in CHO cells assessed as suppression of L-glutamate-induced decrease in cAMP level pretreated for 1 hr followed by L-glutamate/forskolin addition and measured after 30 mins by FRET assay.

Consider `C=C1C(=O)N[C@@H](C)C(=O)N(C)[C@@H](C)C(=O)N[C@@H]([C@H](OC(=O)[C@@H](NC(C)=O)[C@H](O)C(C)C)C(C)C)C(=O)N(C)[C@@H]([C@@H](C)OC)C(=O)OC[C@H](NC(C)=O)C(=O)O[C@H](Cc2ccccc2)C(=O)N1C`, for which the IC50 was greater than 50 µM.

On to `C=C1C(=O)N[C@@H](C)C(=O)N(C)[C@@H](C)C(=O)N[C@@H]([C@H](OC(=O)[C@@H](NC(=O)CCCCC)[C@H](O)C(C)C)C(C)C)C(=O)N(C)[C@@H]([C@@H](C)OC)C(=O)O[C@H](C)[C@H](NC(C)=O)C(=O)O[C@H](Cc2ccccc2)C(=O)N1C`, for which the IC50 is greater than 50 µM. With `C=C1C(=O)N[C@@H](C)C(=O)N(C)[C@@H](C)C(=O)N[C@@H]([C@H](OC(=O)[C@@H](NC(C)=O)[C@H](O)C(C)C)C(C)C)C(=O)N(C)[C@@H]([C@@H](C)OC)C(=O)O[C@H](C(C)C)[C@H](NC(C)=O)C(=O)O[C@H](Cc2ccccc2)C(=O)N1C` (Ac-[X1][dPhLac][NMeDha]A[NMeA][Leu(3R-O(AcLeu(3R-OH)))][NMeT](Me); ester 1-C), the IC50 is greater than 50 µM. Then `C=C1C(=O)N[C@@H](C)C(=O)N(C)[C@@H](C)C(=O)N[C@@H]([C@H](OC(=O)[C@@H](NC(C)=O)[C@H](O)C(C)C)C(C)C)C(=O)N(C)[C@@H]([C@@H](C)OC)C(=O)O[C@H](C)[C@H](NC(C)=O)C(=O)O[C@H](Cc2ccccc2)C(=O)N1C`, with greater than 100 µM; and `C=C1C(=O)N[C@@H](C)C(=O)N(C)[C@@H](C)C(=O)N[C@@H]([C@H](OC(=O)[C@@H](NC(C)=O)[C@H](O)C(C)C)C(C)C)C(=O)N(C)[C@@H]([C@@H](C)OC)C(=O)O[C@@H](C)[C@H](NC(C)=O)C(=O)O[C@H](Cc2ccccc2)C(=O)N1C`, with greater than 50 µM; and `C=C1C(=O)N[C@@H](C)C(=O)N(C)[C@@H](C)C(=O)N[C@@H]([C@H](OC(=O)[C@@H](NC(C)=O)[C@H](O)C(C)C)C(C)C)C(=O)N(C)[C@@H]([C@@H](C)OC)C(=O)O[C@H](C)[C@H](NC(C)=O)C(=O)O[C@H](CC(C)C)C(=O)N1C`, with greater than 100 µM. `C=C1C(=O)N[C@@H](C)C(=O)N(C)[C@@H](C)C(=O)N[C@@H]([C@H](OC(=O)[C@@H](NC(=O)c2ccccc2)[C@H](O)C(C)C)C(C)C)C(=O)N(C)[C@@H]([C@@H](C)OC)C(=O)O[C@H](C)[C@H](NC(C)=O)C(=O)O[C@H](Cc2ccccc2)C(=O)N1C`: the IC50 is greater than 100 µM.

In the case of `CO[C@H](C)[C@H]1C(=O)O[C@H](C)[C@H](NC(C)=O)C(=O)O[C@H](CC(C)C)C(=O)N(C)[C@H](CO)C(=O)N[C@@H](C)C(=O)N(C)[C@@H](C)C(=O)N[C@@H]([C@H](OC(=O)[C@@H](NC(C)=O)[C@H](O)C(C)C)C(C)C)C(=O)N1C`, the IC50 was greater than 100 µM.
